The record followed here is patent US7605156B2, “Methods for the use of inhibitors of cytosolic phospholipase A2” (Wyeth, priority 2001, dated 2009).

In the experiment the target is T1, cPLA2 (Homo sapiens, UniProt P47712).
T1 sequence (P47712 1-749): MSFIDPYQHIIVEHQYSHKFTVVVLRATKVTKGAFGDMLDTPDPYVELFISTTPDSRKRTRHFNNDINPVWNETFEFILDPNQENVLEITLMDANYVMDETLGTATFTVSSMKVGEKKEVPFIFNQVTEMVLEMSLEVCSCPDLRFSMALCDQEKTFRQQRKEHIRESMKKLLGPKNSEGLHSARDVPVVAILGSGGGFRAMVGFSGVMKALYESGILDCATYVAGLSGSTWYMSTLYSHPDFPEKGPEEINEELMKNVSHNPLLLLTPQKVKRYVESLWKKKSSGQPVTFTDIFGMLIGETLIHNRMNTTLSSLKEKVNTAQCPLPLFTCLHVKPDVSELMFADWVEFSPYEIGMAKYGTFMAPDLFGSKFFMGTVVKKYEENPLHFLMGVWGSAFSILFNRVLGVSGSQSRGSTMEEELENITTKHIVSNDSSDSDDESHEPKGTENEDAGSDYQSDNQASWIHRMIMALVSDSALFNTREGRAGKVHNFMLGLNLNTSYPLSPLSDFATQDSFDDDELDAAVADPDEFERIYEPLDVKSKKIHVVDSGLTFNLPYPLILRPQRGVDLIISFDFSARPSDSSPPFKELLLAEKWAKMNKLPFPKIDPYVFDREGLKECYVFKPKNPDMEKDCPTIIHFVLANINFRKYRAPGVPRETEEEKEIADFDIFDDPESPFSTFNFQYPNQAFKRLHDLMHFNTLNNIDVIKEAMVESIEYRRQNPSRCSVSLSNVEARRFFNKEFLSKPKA
Kind of experiment: Coumarine assay (hydrolysis of 7-hydroxycoumarinyl 6-heptenoate). Particulars: 60 μM 7-hydroxycoumarinyl 6-heptenoate, pH 7.5; read-out: Coumarin IC50. The format is biochemical.

Experimental: Inhibitors were mixed with 200 μL assay buffer (80 mM Heped, pH 7.5, 1 mM EDTA) containing 60 μM 7-hydroxycoumarinyl 6-heptenoate. The reaction was initiated by adding 4 μg cPLA2 in 50 μL assay buffer. Hydrolysis of the 7-hydroxycounarimyl 6-heptenoate ester was monitored in a fluorometer by exciting at 360 nm and monitoring emission at 460 nm. Enzyme activity is proportional to the increase in emission at 460 nm per minute. In the presence of a cPLA2 inhibitor, the rate of increase is less.

Broadly, the IC50 is the concentration at which inhibition is half-maximal. In the case of `O=C(O)c1ccc(CCCc2c(CCNS(=O)(=O)c3cc(Cl)c(F)cc3F)n(C(c3ccccc3)c3ccccc3)c3ccc(Cl)cc23)cc1` [Example 166, 4-{3-[1-benzhydryl-5-chloro-2-(2-{[(5-chloro-2,4-difluorophenyl)sulfonyl]amino}ethyl)-1H-indol-3-yl]propyl}benzoic acid], the IC50 came out at 400 nM.

For the compound `Cc1nc(-c2ccc(S(=O)(=O)NCCc3c(CCOc4ccc(C(=O)O)cc4)c4cc(Cl)ccc4n3C(c3ccccc3)c3ccccc3)s2)cs1` [Example 177, 4-(2-{1-benzhydryl-5-chloro-2-[2-({[5-(2-methyl-1,3-thiazol-4-yl)thien-2-yl]sulfonyl}amino)ethyl]-1H-indol-3-yl}ethoxy)benzoic acid], the concentration for half-maximal inhibition (IC50) was 900 nM.

Regarding `O=C(O)c1ccc(CCCc2c(CCNS(=O)(=O)c3ccccc3C(F)(F)F)n(C(c3ccccc3)c3ccccc3)c3ccc(Cl)cc23)cc1` [Example 208], the 50% inhibitory concentration (IC50) is 240 nM.

As to `O=C(O)c1ccc(CCCc2c(CCNS(=O)(=O)Cc3ccc(Cl)cc3)n(C(c3ccccc3)c3ccccc3)c3ccc(Cl)cc23)cc1` [Example 60, 4-{3-[1-benzhydryl-5-chloro-2-(2-{[(4-chlorobenzyl)sulfonyl]amino}ethyl)-1H-indol-3-yl]propyl}benzoic acid], the IC50 amounted to 150 nM.

With `O=C(O)c1ccc(OCCc2c(CCNS(=O)(=O)c3ccccc3[N+](=O)[O-])n(C(c3ccccc3)c3ccccc3)c3ccc(Cl)cc23)cc1` [Example 265, 4-{2-[1-benzhydryl-5-chloro-2-(2-{[(2-nitrophenyl)sulfonyl]amino}ethyl)-1H-indol-3-yl]ethoxy}benzoic acid], the IC50 came out at 370 nM.

Turning to `O=C(O)c1ccc(CCCc2c(CCNS(=O)(=O)c3cc(F)c(Cl)cc3F)n(C(c3ccccc3)c3ccccc3)c3ccc(Cl)cc23)cc1` [Example 168, 4-{3-[1-benzhydryl-5-chloro-2-(2-{[(4-chloro-2,5-difluorophenyl)sulfonyl]amino}ethyl)-1H-indol-3-yl]propyl}benzoic acid], the 50% inhibitory concentration (IC50) was 270 nM.

As for `CC(C)Oc1ccccc1S(=O)(=O)NCCc1c(CCOc2ccc(C(=O)O)cc2)c2cc(Cl)ccc2n1C(c1ccccc1)c1ccccc1` [Example 185, 4-(2-{1-Benzhydryl-5-chloro-2-[2-(2-isopropoxy-benzenesulfonylamino)-ethyl]-1H-indol-3-yl}-ethoxy)benzoic acid], the IC50 was found to be 170 nM.

As to `Cc1c(Cl)cc(F)cc1S(=O)(=O)NCCc1c(CCOc2ccc(C(=O)O)cc2)c2cc(Cl)ccc2n1C(c1ccccc1)c1ccccc1` [Example 262, 4-{2-[1-benzhydryl-5-chloro-2-(2-{[(3-chloro-5-fluoro-2-methylphenyl)sulfonyl]amino}ethyl)-1H-indol-3-yl]ethoxy}benzoic acid], the IC50 came out at 530 nM.

For `Cc1cc(C)c(S(=O)(=O)NCCc2c(CCOc3ccc(C(=O)O)cc3)c3cc(Cl)ccc3n2C(c2ccccc2)c2ccccc2)c(C)c1` [Example 266, 4-[2-(1-benzhydryl-5-chloro-2-{2-[(mesitylsulfonyl)amino]ethyl}-1H-indol-3-yl)ethoxy]benzoic acid], the 50% inhibitory concentration (IC50) stood at 160 nM.

`O=C(O)c1ccc(OCCc2c(CCNS(=O)(=O)c3ccc(Cl)c4nonc34)n(C(c3ccccc3)c3ccccc3)c3ccc(Cl)cc23)cc1` [Example 174, 4-{2-[1-benzhydryl-5-chloro-2-(2-{[(7-chloro-2,1,3-benzoxadiazol-4-yl)sulfonyl]amino}ethyl)-1H-indol-3-yl]ethoxy}benzoic acid]: the IC50 was 1100 nM.

For `O=C(O)c1ccc(OCCc2c(CCNS(=O)(=O)c3c(F)cccc3F)n(C(c3ccccc3)c3ccccc3)c3ccc(Cl)cc23)cc1` [Example 225, 4-{2-[1-benzhydryl-5-chloro-2-(2-{[(2,6-difluorophenyl)sulfonyl]amino}ethyl)-1H-indol-3-yl]ethoxy}benzoic acid], the concentration for half-maximal inhibition (IC50) came to 400 nM.

With `O=C(O)c1ccc(CCCc2c(CCNS(=O)(=O)c3ccccc3OCc3ccccc3)n(C(c3ccccc3)c3ccccc3)c3ccc(Cl)cc23)cc1` [Example 187, 4-(3-{1-Benzhydryl-2-[2-(2-benzyloxy-benzenesulfonylamino)-ethyl]-5-chloro-1H-indol-3-yl}-propyl)benzoic acid], the 50% inhibitory concentration (IC50) turned out to be 200 nM.

As to `O=C(O)c1ccc(OCCc2c(CCNS(=O)(=O)c3ccccc3C(F)(F)F)n(C(c3ccccc3)c3ccccc3)c3ccc(Cl)cc23)cc1` [Example 209, 4-[2-{1-Benzhydryl-5-chloro-2-[2-({[2-(trifluoromethyl)phenyl]sulfonyl}amino)ethyl]-1H-indol-3-yl}ethoxy)benzoic acid], the IC50 came to 350 nM.

Consider `O=C(O)c1ccc(OCCc2c(CCNS(=O)(=O)c3ccccc3F)n(C(c3ccccc3)c3ccccc3)c3ccc(Cl)cc23)cc1` [Example 223], for which the IC50 stood at 600 nM.

Take `O=C(O)c1ccc(OCCc2c(CCNS(=O)(=O)c3ccc(-c4ccc(F)cc4)cc3)n(C(c3ccccc3)c3ccccc3)c3ccc(Cl)cc23)cc1` [Example 217, 4-{2-[1-benzhydryl-5-chloro-2-(2-{[(4′-fluoro-1,1′-biphenyl-4-yl)sulfonyl]amino}ethyl)-1H-indol-3-yl]ethoxy}benzoic acid]: the IC50 stood at 2600 nM.

For the compound “4-{2-[1-benzhydryl-5-chloro-2-(2-{[(2,6-dimethylbenzyl)sulfonyl]amino}ethyl)-1H-indol-3-yl]ethoxy}benzoic acid [Example 279]”, the IC50 was 160 nM.

For `COc1cc(C)ccc1S(=O)(=O)NCCc1c(CCOc2ccc(C(=O)O)cc2)c2cc(Cl)ccc2n1C(c1ccccc1)c1ccccc1` [Example 171, 4-{2-[1-benzhydryl-5-chloro-2-(2-{[(2-methoxy-4-methylphenyl)sulfonyl]amino}ethyl)-1H-indol-3-yl]ethoxy}benzoic acid], the half-inhibitory concentration (IC50) is 360 nM.

Turning to `O=C(O)CCc1ccc(S(=O)(=O)CCc2c(CCNS(=O)(=O)Cc3ccc(Cl)c(Cl)c3)n(C(c3ccccc3)c3ccccc3)c3ccc(Cl)cc23)cc1` [Example 129, 3-[4-({2-[1-benzhydryl-5-chloro-2-(2-{[(3,4-dichlorobenzyl)sulfonyl]amino}ethyl)-1H-indol-3-yl]ethyl}sulfonyl)phenyl] propanoic acid], the IC50 was determined as 130 nM.

On to `O=C(O)c1ccc(OCCc2c(CCNS(=O)(=O)CCN3CCC(O)CC3)n(C(c3ccccc3)c3ccccc3)c3ccc(Cl)cc23)cc1` [Example 123, 4-[2-(1-Benzhydryl-5-chloro-2-{2-[2-(4-hydroxy-piperidin-1-yl)-ethanesulfonylamino]-ethyl}-1H-indol-3-yl)-ethoxy]-benzoic acid], for which the IC50 amounted to 1500 nM.

As to `Cc1c(Cl)cccc1S(=O)(=O)NCCc1c(CCCc2ccc(C(=O)O)cc2)c2cc(Cl)ccc2n1C(c1ccccc1)c1ccccc1` [Example 240, 4-{3-[1-benzhydryl-5-chloro-2(2-{[(3-chloro-2-methylphenyl)sulfonyl]amino}ethyl)-1H-indol-3-yl]propyl}benzoic acid], the IC50 was 320 nM.

Turning to `CC(C)(C)c1ccccc1S(=O)(=O)NCCc1c(CCCc2ccc(C(=O)O)cc2)c2cc(Cl)ccc2n1C(c1ccccc1)c1ccccc1` [Example 236], the IC50 was determined as 85 nM.

On to `O=C(O)c1ccc(CCCc2c(CCNS(=O)(=O)c3ccccc3-c3ccccc3)n(C(c3ccccc3)c3ccccc3)c3ccc(Cl)cc23)cc1` [Example 157, 4-[3-(1-benzhydryl-2-{2-[(1,1′-biphenyl-2-ylsulfonyl)amino]ethyl}-5-chloro-1H-indol-3-yl)propyl]benzoic acid], for which the IC50 was found to be 200 nM.

For `CC(CCl)c1ccccc1S(=O)(=O)NCCc1c(CCOc2ccc(C(=O)O)cc2)c2cc(Cl)ccc2n1C(c1ccccc1)c1ccccc1` (stereo not drawn) [Example 278], the IC50 came out at 1900 nM.

Turning to `Cc1cccc(Cl)c1S(=O)(=O)NCCc1c(CCOc2ccc(C(=O)O)cc2)c2cc(Cl)ccc2n1C(c1ccccc1)c1ccccc1` [Example 227, 4-{2-[1-benzhydryl-5-chloro-2-(2-{[(2-chloro-6-methylphenyl)sulfonyl]amino}ethyl)-1H-indol-3-yl]ethoxy}benzoic acid], the half-maximal inhibitory concentration (IC50) is 160 nM.

Take `COc1ccccc1S(=O)(=O)NCCc1c(CCCc2ccc(C(=O)O)cc2)c2cc(Cl)ccc2n1C(c1ccccc1)c1ccccc1` [Example 234, 4-{3-[1-Benzhydryl-5-chloro-2-(2-{[(2-methoxyphenyl)sulfonyl]amino}ethyl)-1H-indol-3-yl]propyl}benzoic acid]: the IC50 was 230 nM.

Regarding `O=S(=O)(Cc1ccc(Cl)c(Cl)c1)NCCc1c(CCOc2ccc(-c3nn[nH]n3)cc2)c2cc(Cl)ccc2n1C(c1ccccc1)c1ccccc1` [Example 192, N-[2-(1-benzhydryl-5-chloro-3-{2-[4-(2H-tetraazol-5-yl)phenoxy]ethyl}-1H-indol-2-yl)ethyl]-1-(3,4-dichlorophenyl)methanesulfonamide], the IC50 was less than 3700 nM.

Regarding `CC1CCN(CCS(=O)(=O)NCCc2c(CCOc3ccc(C(=O)O)cc3)c3cc(Cl)ccc3n2C(c2ccccc2)c2ccccc2)CC1` [Example 245, 4-(2-{1-benzhydryl-5-chloro-2-[2-({[2-(4-methylpiperidin-1-yl)ethyl]sulfonyl}amino)ethyl]-1H-indol-3-yl}ethoxy)benzoic acid], the IC50 was determined as 900 nM.
